Results reported in US10329302B2, “Bicyclic-fused heteroaryl or aryl compounds” (Pfizer Inc., priority 2014, dated 2019).
pIC50: −log10 of the molar value. Like-named read-outs stand apart in the source and are kept apart here.

Key:
[1] = tested on: R848-induced TNFα production by human peripheral blood mononuclear cells (PBMCs); test: R848 Induced TNFα in Human PBMC Assay; format: cell-based; settings: for IC50: Homo sapiens, PBMC, 3 h, read-out: R848-induced TNFa PBMC IC50 (nM); for pIC50: human PBMC, absence of serum, 3 hours, read-out: R848-induced TNFa PBMC IC50
Excerpt: R848 Induced TNFα in Human PBMC Assay.
This protocol is for R848-induced TNFα production by human peripheral blood mononuclear cells (PBMCs). […] The assay is used to assess cell-based potency of small molecule inhibitors of IRAK4 in the absence of serum.
The PBMCs in the interphase layer were collected and washed with PBS via centrifugation multiple times until the supernatant is clear. The purified PBMCs were re-suspended in RPMI (Roswell Park Memorial Institute) media (Sigma-Aldrich).
For the assay, a compound dilution plate containing a top concentration of 4 mM compound in DMSO was serially diluted 4-fold for 11 times. 250 nL of the compound dilution plate was spotted into a 384-well, flat bottom with lid, TC-treated, black with clear bottom, sterile, polystyrene plate (Corning Life Sciences).
10 μL of anti-TNFα antibody labeled with MSD SULFO-TAG at 50 μg/mL was added to each well and allowed to incubate overnight at 4° C.

[2] = target: human IRAK4 FL (Full Length) (Homo sapiens (Human), UniProt Q9NWZ3); test: IRAK4 Enzymatic DELFIA Assay, Protocol A; format: biochemical; settings: human IRAK4 FL, 0.6 mM ATP (KM); read-out: IRAK4 DELFIA Protocol A IC50
human IRAK4 FL (Full Length), sequence (Q9NWZ3 whole entry): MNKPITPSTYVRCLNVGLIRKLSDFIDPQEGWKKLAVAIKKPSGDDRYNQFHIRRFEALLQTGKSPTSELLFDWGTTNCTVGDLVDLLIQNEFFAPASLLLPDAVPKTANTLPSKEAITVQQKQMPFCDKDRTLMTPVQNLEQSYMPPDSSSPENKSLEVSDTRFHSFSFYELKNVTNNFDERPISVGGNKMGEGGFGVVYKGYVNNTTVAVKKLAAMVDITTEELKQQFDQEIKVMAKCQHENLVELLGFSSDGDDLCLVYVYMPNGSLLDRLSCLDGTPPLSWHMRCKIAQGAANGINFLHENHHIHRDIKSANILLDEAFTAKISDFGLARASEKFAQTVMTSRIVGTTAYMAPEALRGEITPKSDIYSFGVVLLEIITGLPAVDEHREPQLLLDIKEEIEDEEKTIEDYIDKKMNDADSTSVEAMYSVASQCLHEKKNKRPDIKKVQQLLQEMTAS

## COc1cc2c(OC[C@H]3NC(=O)C(F)[C@H]3C)ccc(F)c2cc1C(N)=O (stereo in doubt) [Example 220, 8-fluoro-5-{[(2S,3S,4S)-4-fluoro-3-methyl-5-oxopyrrolidin-2-yl]methoxy}-3-methoxynaphthalene-2-carboxamide]
[1]
  IC50: 14 nM
[2]
  pIC50: 9.05

## COc1cc2c(OC[C@H]3NC(=O)[C@H]4C3[C@H]4F)nccc2cc1C(N)=O (stereo in doubt) [Example 334, 1-(((1R,2S,5R,6R)-6-fluoro-4-oxo-3-azabicyclo[3.1.0]hexan-2-yl)methoxy)-7-methoxyisoquinoline-6-carboxamide]
[1]
  IC50: 1770 nM
[2]
  pIC50: 8.38

## CC(C)Oc1cc2c(OC[C@@H]3CCC(=O)N3)nccc2cc1C#N [Example 03, 1-{[(2S)-5-oxopyrrolidin-2-yl]methoxy}-7-(propan-2-yloxy)isoquinoline-6-carbonitrile]
[1]
  IC50: 2740 nM
[2]
  pIC50: 6.24

## CC(C)Oc1cc2c(OC[C@@H]3COC(=O)N3)nccc2cc1C(N)=O [Example 04, 1-{[(4R)-2-oxo-1,3-oxazolidin-4-yl]methoxy}-7-(propan-2-yloxy)isoquinoline-6-carboxamide]
[1]
  IC50: 1800 nM
[2]
  pIC50: 8.18

## CC(C)Oc1cc2c(OC[C@@H]3CCCC(=O)N3)nccc2cc1C(N)=O [Example 06, 1-{[(2S)-6-oxopiperidin-2-yl]methoxy}-7-(propan-2-yloxy)isoquinoline-6-carboxamide]
[1]
  IC50: 472 nM
[2]
  pIC50: 7.29

## CC(C)Oc1cc2c(OC[C@@H]3CC(C)(C)C(=O)N3)nccc2cc1C(N)=O [Example 110, 1-{[(2S)-4,4-dimethyl-5-oxopyrrolidin-2-yl]methoxy}-7-(propan-2-yloxy)isoquinoline-6-carboxamide]
[1]
  IC50: 1170 nM
[2]
  pIC50: 6.38

## CC(C)Oc1cc2c(OC[C@@H]3CC(F)C(=O)N3)nccc2cc1C(N)=O (stereo partly drawn) [Example 112, 1-{[(2S)-4-fluoro-5-oxopyrrolidin-2-yl]methoxy}-7-(propan-2-yloxy)isoquinoline-6-carboxamide]
[1]
  IC50: 50 nM
[2]
  pIC50: 9.00

## CC(C)Oc1cc2c(OC[C@@H]3CCC(=O)N3)cccc2cc1C(N)=O [Example 114, 5-{[(2S)-5-oxopyrrolidin-2-yl]methoxy}-3-(propan-2-yloxy)naphthalene-2-carboxamide]
[1]
  IC50: 33 nM
[2]
  pIC50: 9.15

## COc1cc2c(OC[C@H]3NC(=O)[C@@H](F)[C@H]3C(C)O)nccc2cc1C(N)=O (stereo partly drawn) [Example 198, 1-{[(2S,3R,4S)-4-fluoro-3-(1-hydroxyethyl)-5-oxopyrrolidin-2-yl]methoxy}-7-methoxyisoquinoline-6-carboxamide]
[1]
  pIC50: 6.15

## COc1cc2c(OC[C@H]3NC(=O)[C@@H](F)[C@@H]3C)nccc2cc1C(N)=O [Example 203, 1-{[(2S,3R,4S)-4-fluoro-3-methyl-5-oxopyrrolidin-2-yl]methoxy}-7-methoxyisoquinoline-6-carboxamide]
[1]
  IC50: 47 nM

## COc1cc2c(OC[C@@H]3C[C@@](F)(CO)C(=O)N3)cccc2cc1C(N)=O [Example 207, 5-{[(2S,4R)-4-fluoro-4-(hydroxymethyl)-5-oxopyrrolidin-2-yl]methoxy}-3-methoxynaphthalene-2-carboxamide]
[1]
  pIC50: 7.39

## COc1cc2c(OC[C@@H]3C[C@@](F)(CC(F)(F)F)C(=O)N3)cccc2cc1C(N)=O [Example 240, 5-{[(2S,4R)-4-fluoro-5-oxo-4-(2,2,2-trifluoroethyl)pyrrolidin-2-yl]methoxy}-3-methoxynaphthalene-2-carboxamide]
[1]
  pIC50: 7.62

## COc1cc2c(OC[C@@H]3C[C@](F)(CC(F)(F)F)C(=O)N3)cccc2cc1C(N)=O [Example 241, 5-{[(2S,4S)-4-fluoro-5-oxo-4-(2,2,2-trifluoroethyl)pyrrolidin-2-yl]methoxy}-3-methoxynaphthalene-2-carboxamide]
[1]
  pIC50: 5.24

## COc1cc2c(OC[C@@H]3NC(=O)C[C@@H]3C)nccc2cc1C(N)=O [Example 277, 7-methoxy-1-{[(2R,3S)-3-methyl-5-oxopyrrolidin-2-yl]methoxy}isoquinoline-6-carboxamide]
[1]
  IC50: 4420 nM

## CCOc1cc2c(OC[C@H]3NC(=O)[C@@H](F)[C@H]3C)nccc2cc1C(N)=O [Example 283, 7-ethoxy-1-{[(2S,3S,4S)-4-fluoro-3-methyl-5-oxopyrrolidin-2-yl]methoxy}isoquinoline-6-carboxamide]
[1]
  IC50: 27 nM

## COc1cc2c(OC[C@@H]3C[C@@](F)(C4CCOCC4)C(=O)N3)nccc2cc1C(N)=O [Example 284, 1-{[(2S,4R)-4-fluoro-5-oxo-4-(tetrahydro-2H-pyran-4-yl)pyrrolidin-2-yl]methoxy}-7-methoxyisoquinoline-6-carboxamide]
[1]
  IC50: 320 nM

## COc1cc2c(OC[C@@H]3C[C@@H](C4CCOCC4)C(=O)N3)nccc2cc1C(N)=O [Example 286, 7-methoxy-1-{[(2S,4S)-5-oxo-4-(tetrahydro-2H-pyran-4-yl)pyrrolidin-2-yl]methoxy}isoquinoline-6-carboxamide]
[1]
  IC50: 7020 nM

## CCOc1cc2c(OC[C@@H]3C[C@](C)(F)C(=O)N3)ccnc2cc1C(N)=O [Example 287, 6-ethoxy-4-{[(2S,4S)-4-fluoro-4-methyl-5-oxopyrrolidin-2-yl]methoxy}quinoline-7-carboxamide]
[1]
  IC50: 2300 nM

## COc1cc2c(OC[C@@H]3NC(=O)[C@H](F)[C@@H]3C)nccc2cc1C(N)=O [Example 288, 1-{[(2R,3R,4R)-4-fluoro-3-methyl-5-oxopyrrolidin-2-yl]methoxy}-7-methoxyisoquinoline-6-carboxamide]
[1]
  IC50: 1810 nM

## COc1cc2c(OC[C@@H]3C[C@@H](C4(O)CCOCC4)C(=O)N3)nccc2cc1C(N)=O [Example 289, 1-{[(2S,4S)-4-(4-hydroxytetrahydro-2H-pyran-4-yl)-5-oxopyrrolidin-2-yl]methoxy}-7-methoxyisoquinoline-6-carboxamide]
[1]
  IC50: 6270 nM

## COC[C@]1(F)C[C@@H](COc2nccc3cc(C(N)=O)c(OC)cc23)NC1=O [Example 292, 1-{[(2S,4R)-4-fluoro-4-(methoxymethyl)-5-oxopyrrolidin-2-yl]methoxy}-7-methoxyisoquinoline-6-carboxamide]
[1]
  IC50: 3140 nM

## CCOc1cc2c(OC[C@@H]3C[C@@](F)(CF)C(=O)N3)ccnc2cc1C(N)=O [Example 293, 6-ethoxy-4-{[(2S,4S)-4-fluoro-4-(fluoromethyl)-5-oxopyrrolidin-2-yl]methoxy}quinoline-7-carboxamide]
[1]
  IC50: 462 nM

## CCOc1cc2c(OC[C@@H]3C[C@@](F)(CF)C(=O)N3)nccc2cc1C(N)=O [Example 294, 7-ethoxy-1-{[(2S,4S)-4-fluoro-4-(fluoromethyl)-5-oxopyrrolidin-2-yl]methoxy}isoquinoline-6-carboxamide]
[1]
  IC50: 24 nM

## COc1cc2c(OC[C@H]3NC(=O)[C@@H]4C[C@]34C)nccc2cc1C(N)=O [Example 295, 7-methoxy-1-{[(1S,2S,5R)-1-methyl-4-oxo-3-azabicyclo[3.1.0]hex-2-yl]methoxy}isoquinoline-6-carboxamide]
[1]
  IC50: 67 nM

## COc1cc2c(OC[C@H]3NC(=O)[C@]4(C)C[C@H]34)nccc2cc1C(N)=O [Example 297, 7-methoxy-1-{[(1S,2S,5R)-5-methyl-4-oxo-3-azabicyclo[3.1.0]hex-2-yl]methoxy}isoquinoline-6-carboxamide]
[1]
  IC50: 7120 nM

## CC[C@]12C[C@H]1C(=O)N[C@@H]2COc1nccc2cc(C(N)=O)c(OC)cc12 [Example 299, 1-{[(1S,2S,5R)-1-ethyl-4-oxo-3-azabicyclo[3.1.0]hex-2-yl]methoxy}-7-methoxyisoquinoline-6-carboxamide]
[1]
  IC50: 49 nM

## CC[C@@H]1[C@H]2C(=O)N[C@H](COc3nccc4cc(C(N)=O)c(OC)cc34)[C@@H]12 [Example 300, 1-{[(1S,2S,5R)-6-ethyl-4-oxo-3-azabicyclo[3.1.0]hex-2-yl]methoxy}-7-methoxyisoquinoline-6-carboxamide]
[1]
  IC50: 931 nM

## COc1cc2c(OC[C@@H]3CCCC(=O)N3)nccc2cc1C(N)=O [Example 302, 7-methoxy-1-{[(2S)-6-oxopiperidin-2-yl]methoxy}isoquinoline-6-carboxamide]
[1]
  IC50: 1280 nM

## COc1cc2c(OC[C@H]3NC(=O)C[C@H]3C3CC3)nccc2cc1C(N)=O [Example 305, 1-{[(2S,3S)-3-cyclopropyl-5-oxopyrrolidin-2-yl]methoxy}-7-methoxyisoquinoline-6-carboxamide]
[1]
  IC50: 57 nM

## COc1cc2c(OC[C@H]3NC(=O)[C@@H]4CC[C@H]34)nccc2cc1C(N)=O [Example 308, 7-methoxy-1-{[(1S,2S,5R)-4-oxo-3-azabicyclo[3.2.0]hept-2-yl]methoxy}isoquinoline-6-carboxamide]
[1]
  IC50: 134 nM

## [2H]C([2H])([2H])Oc1cc2c(OC[C@H]3NC(=O)[C@@H](F)[C@H]3CC)nccc2cc1C(N)=O [Example 338, 1-{[(2S,3S,4S)-3-ethyl-4-fluoro-5-oxopyrrolidin-2-yl]methoxy}-7-[(trideutero)methyloxy]isoquinoline-6-carboxamide]
[1]
  pIC50: 8.52

## [2H]C([2H])([2H])C([2H])([2H])[C@@H]1[C@H](F)C(=O)N[C@@H]1COc1nccc2cc(C(N)=O)c(OC)cc12 [Example 344, 1-{[(2S,3S,4S)-3-(pentadeutero)ethyl-4-fluoro-5-oxopyrrolidin-2-yl]methoxy}-7-methoxyisoquinoline-6-carboxamide]
[1]
  pIC50: 9.30

## CC[C@@H]1[C@@H](COc2nccc3cc(C(N)=O)c(OC)cc23)NC(=O)[C@@H]1F [Example 346, 1-{[(2S,3R,4R)-3-ethyl-4-fluoro-5-oxopyrrolidin-2-yl]methoxy}-7-methoxyisoquinoline-6-carboxamide]
[1]
  pIC50: 6.82

## [2H][C@]1(CC)[C@@H](COc2nccc3cc(C(N)=O)c(OC)cc23)NC(=O)[C@@]1([2H])F [Example 374, 1-{[(2S,3S,4S)-3-ethyl-4-fluoro-5-oxo(3,4-bisdeutero)pyrrolidin-2-yl]methoxy}-7-methoxyisoquinoline-6-carboxamide]
[1]
  pIC50: 8.92
